{"source": "patent US20110262442A1", "about": "“COMPOSITIONS FOR TREATING CNS DISORDERS” (Adenios, Inc., priority 2009, published 2011)", "key": {"blood brain barrier [1]": {"test_system": "blood brain barrier", "experiment": "Fluorimetric analysis of labeled dextrans in brain after i.v. drug administration, rats", "assay_type": "in vivo", "settings": "i.v. administration, 10,000 Da dextrans", "method": "C57BL/6 mice from Jackson Laboratories were used as wild types. All mice used were aged 7-9 weeks and weighed between 20-25 g. All rats were aged 8 weeks and weighed 200-220 g. Mice and rats were bred and housed under specific pathogen-free conditions. The adenosine receptor agonists NECA, CCPA and CGS 21860 were purchased from Tocris. Each was dissolved in DMSO then diluted in PBS to the desired concentration; in most cases final DMSO concentrations were <0.5% (vol/vol). For vehicle controls, DMSO was diluted in PBS to the same concentration. Dehydrated dextrans labeled with either FITC or Texas Red were purchased from Invitrogen and re-suspended in PBS to 10 mg ml^-1. All experiments involving dextran injection used 0.5 mg dextran in PBS. In experiments where drug and dextran were injected concomitantly, 0.5 mg of dextran was mixed with the drug to the desired concentration in a final volume of 200 μl. All injections were retro-orbital i.v. with a 27-gauge needle. In the SCH 58261 experiment, groups were administered vehicle or SCH 58261 for 4 d. Vehicle/drug and dextrans were injected on day 5 and tissues were collected 3 h after vehicle/drug administration. […] FITC-dextran was detected at 488/519 (excitation/emission) and Texas Red-dextran was detected at 592/618."}, "blood brain barrier [2]": {"test_system": "blood brain barrier", "experiment": "Fluorimetric analysis of labeled dextrans in brain after i.v. drug administration", "assay_type": "in vivo, mice", "method": "C57BL/6 mice from Jackson Laboratories were used as wild types. All mice used were aged 7-9 weeks and weighed between 20-25 g. All rats were aged 8 weeks and weighed 200-220 g. Mice and rats were bred and housed under specific pathogen-free conditions.\nThe adenosine receptor agonists NECA, CCPA and CGS 21860 were purchased from Tocris. Each was dissolved in DMSO then diluted in PBS to the desired concentration; in most cases final DMSO concentrations were <0.5% (vol/vol). For vehicle controls, DMSO was diluted in PBS to the same concentration. Dehydrated dextrans labeled with either FITC or Texas Red were purchased from Invitrogen and re-suspended in PBS to 10 mg ml^−1. All experiments involving dextran injection used 0.5 mg dextran in PBS. In experiments where drug and dextran were injected concomitantly, 0.5 mg of dextran was mixed with the drug to the desired concentration in a final volume of 200 μl. All injections were retro-orbital i.v. with a 27-gauge needle. In the SCH 58261 experiment, groups were administered vehicle or SCH 58261 for 4 d. Vehicle/drug and dextrans were injected on day 5 and tissues were collected 3 h after vehicle/drug administration. In Lexiscan experiments, Lexiscan was administered i.v. with 3 injections, 5 min apart and tissues were collected at 15 min unless otherwise indicated.\nIn dose-response experiments and experiments with the A1 AR and A2A AR knock-out mice, drugs and dextrans were injected concomitantly. After 3 h, the mice were anesthetized with ketamine/xylazine and subjected to a nose cone containing isoflurane. They were perfused with 25-50 ml ice-cold PBS through the left ventricle of the heart then decapitated. Their brains were removed, weighed and frozen for later analysis.\nIce-cold 50 mM Tris-Cl (pH 7.6) was added to frozen brains (100 μl per 100 mg brain) and were to thawed on ice. They were homogenized manually with ˜45 strokes of a dounce homogenizer in plastic 1.5 ml microfuge tubes then spun at 16.1 g in a microfuge for 30 min at room temperature (rt). The supernatants were transferred to new tubes and an equal volume absolute methanol was added. The samples were spun again at 16.1 g for 30 min at rt. Supernatant (200 μl) was transferred to a Corning costar 96 well black polystyrene assay plate (clear bottom). Additionally, a series of standards containing 0.001-10 μg ml^−1 dextran in 50% Tris-Cl/50% absolute methanol (vol/vol) was added to each plate. Absolute concentrations of dextrans were derived from these standard curves. Fluorimetric analysis was performed on a BioTek Synergy 4. FITC-dextran was detected at 488/519 (excitation/emission) and Texas Red-dextran was detected at 592/618."}, "brain endothelial cells": {"test_system": "brain endothelial cells", "experiment": "Actin stress fiber induction in brain endothelial cells", "assay_type": "cell-based", "method": "To test this brain endothelial cells were treated with either CCPA (to agonize A1 adenosine receptors) or […] (to agonize the A2A adenosine receptor)."}}}
{"smiles": "CNC(=O)c1cnn(-c2nc(N)c3ncn([C@@H]4O[C@H](CO)[C@@H](O)[C@H]4O)c3n2)c1", "note": "[Lexiscan]", "values": [{"measurement": "BBB permeability", "setting": "blood brain barrier [1]", "value": "increased BBB permeability in rats"}, {"measurement": "magnitude of increased BBB permeability compared with NECA administration", "setting": "blood brain barrier [2]; i.v. administration", "value": "much greater"}, {"measurement": "BBB permeability to 10,000 Da dextrans", "setting": "blood brain barrier [2]; mice, i.v., 3 injections 5 min apart, tissues collected at 15 min", "value": "increase BBB permeability to 10,000 Da dextrans"}, {"measurement": "time after which FITC-dextran was detectable in the brain", "setting": "blood brain barrier [2]; mice, single i.v. injection", "value": 5, "unit": "min"}, {"measurement": "actin stress fibers compared to vehicle alone", "setting": "brain endothelial cells", "value": "induction of actin stress fibers was observed"}]}
